Experiments:
NQO1 [1] = biological target: T1, NQO1 (Homo sapiens, UniProt P15559); test: NQO1 enzyme assays using β-lapachone or the standard menadione substrates; format: biochemical; parameters: S9 Supernatants were prepared from cells in mid-log to late log phase growth; endogenous in cells; host or cells: cancer cell lines, mostly from a non-small cell lung cancer panel; S9 supernatants; conditions: β-lapachone as substrate, H1993 *1/*1
Experimental: S9 Supernatants were prepared from cells in mid-log to late log phase growth. […] The cell suspensions were sonicated on ice four times, using 10-s pulses, and then centrifuged at 14,000×g for 20 min. The S9 supernatants were aliquoted into microcentrifuge tubes and stored at −80° C. until used. A 1× protease inhibitor cocktail was added to prevent enzyme activity degradation. […] Menadione was used as the electron acceptor. NADH was used as the electron donor.
NQO1 activity was measured using NADH (200 μM) as the immediate electron donor and menadione (10 μM) as the intermediate electron acceptor. […] Biochem. Biophys. […] NADH: cytochrome b5 reductase was measured using NADH (200 μM) as the electron donor, and […] was measured using NADPH (200 μM) as electron donor (45) in a Beckman DU 640 spectrophotometer (Beckman Coulter, Fullerton, Calif.). Reactions were carried out at 37° C. and were initiated by the addition of S9 supernatants. Varying amounts of supernatants, from 10 to 40 μL, were used to ensure linearity of rates with protein concentration. […] Results shown are the average enzyme activity for three separate cell extractions±S.D. or both values from duplicate experiments.
Cell lines, mostly from a 5-panel nonsmall cell lung cancer panel from the UT Southwestern SPORE, were assessed for NQO1 polymorphism status and then monitored for NQO1 enzyme assays using β-lapachone or the standard menadione substrates. […] NQO1*2/*2 and *3/*3 polymorphisms were detected from NQO1 *1/*1 wild-type sequences by PCR-RFLP. Genomic DNA was extracted from the cells using Qiagen spin columns. Using previously described oligonucleotide primers, PCR products underwent gel electrophoresis. Final genotyping was determined based on the size and pattern of separated bands diagnostic for *1/*1 (wild-type), or polymorphic *2/*2 or *3/*3 NQO1 polymorphisms.

PC-3 cells = test: Relative DNA cell survival assay, β-lap with or without IR; format: cell-based, human; conditions: for Equivalent dose of IR / Equivalent dose of β-Lap: Machado's model
Experimental: Relative DNA cell survival assays were assessed after various treatments. Briefly, cells were seeded at 5×10^3 per well in 48-well plates and allowed to attach overnight. […] DNA content was then determined by Hoeschst 33258 dye staining and fluorescence detection using a plate reader (Perkin-Elmer, Boston, Mass.) as described. Relative survival assays after combined treatment were confirmed by colony-forming ability assays as described. Results were reported as means±SE from at least three independent experiments. For relative survival data, different combinations of IR+β-lap exposures were fit with simple multi-target models in SigmaPlot for Windows Version 11.0. For synergy, a statistical definition of synergy (48) was used and calculations were performed by fitting experimental data with the Machado and Robinson model using the R code (47). The equitoxic doses listed in Table 1 were calculated by the parameters of the model of Machado and Robinson obtained in fitting.

[2] = system: NQO1-deficient LNCaP cells; test: Relative survival assay; format: cell-based, human
Experimental: Relative DNA cell survival assays were assessed after various treatments. […] Cells were then mock-treated or treated with various doses of β-lap (for 2 h) in the presence or absence of dicoumoral as indicated. Drug-free medium was then added and cells allowed to grow for 5-7 days until control cells reached ˜100% confluence. […] Results were reported as means±SE from at least three independent experiments.

HCC44 = test: β-lapachone lethality in NQO1 genotyped cancer cells; format: cell-based, human
Experimental: (§1) Cell lines, mostly from a 5-panel nonsmall cell lung cancer panel from the UT Southwestern SPORE, were assessed for NQO1 polymorphism status and then monitored for NQO1 enzyme assays using β-lapachone or the standard menadione substrates. Cell line responses to β-lapachone exposures (μM, 2 h) were then assessed and lethal doses causing 50% lethality with or without dicoumarol (40 μM) co-treatments were recorded. NQO1*2/*2 and *3/*3 polymorphisms were detected from NQO1 *1/*1 wild-type sequences by PCR-RFLP. Genomic DNA was extracted from the cells using Qiagen spin columns. Using previously described oligonucleotide primers, PCR products underwent gel electrophoresis. Final genotyping was determined based on the size and pattern of separated bands diagnostic for *1/*1 (wild-type), or polymorphic *2/*2 or *3/*3 NQO1 polymorphisms.

T47D/BreastCancer = test: as above; format: cell-based, human
Experimental: as §1

H2009/NSCLC = test: as above; format: cell-based, human
Experimental: as §1

HCC2935 = test: as above; format: cell-based, human
Experimental: as §1

H1648 = test: as above; format: cell-based, human
Experimental: as §1

NQO1 [3] = biological target: T1, NQO1; test: NADH recycling assay (NQO1 futile cycling); format: biochemical; parameters: S9 Supernatants were prepared from cells in mid-log to late log phase growth; endogenous in cells; host or cells: cancer cell lines, mostly from a non-small cell lung cancer panel (e.g. Calu-3); S9 supernatants; conditions: in 5 min, NQO1 futile cycle
Experimental: Assays were performed with either purified NQO1 or S9 extracts from MCF-7:WS8, or other cancer or normal cells. For the assay using purified NQO1, […] of recombinant human NQO1 was mixed with 200-500 μM NADH in 50 mM potassium phosphate buffer, pH 7.0.

[4] = *3/*3, 2 h, + dicoumarol (40 μM)
[5] = NQO1 genotype *3/*3, 2 h exposure

T1 sequence (P15559 whole entry): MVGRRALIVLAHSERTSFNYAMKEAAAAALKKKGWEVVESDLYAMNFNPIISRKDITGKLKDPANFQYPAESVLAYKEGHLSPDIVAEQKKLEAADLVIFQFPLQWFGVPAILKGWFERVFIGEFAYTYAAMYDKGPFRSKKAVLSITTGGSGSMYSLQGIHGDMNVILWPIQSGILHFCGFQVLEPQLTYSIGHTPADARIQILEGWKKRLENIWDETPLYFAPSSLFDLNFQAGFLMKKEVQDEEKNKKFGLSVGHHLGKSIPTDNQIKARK

CC1(C)CCC2=C(O1)c1ccccc1C(=O)C2=O [β-Lap, 3,4-dihydro-2,2-dimethyl-2H-naphtho[1,2-b]pyran-5,6-dione]
NQO1 activity, β-Lap (NQO1 [1]): 1940 ± 12 nmol/min/µg
Exposure time sufficient to achieve maximal cytotoxicity (PC-3 cells; 4 μM β-lap): ~120 min
β-lap dose with the same effect as the combination (PC-3 cells; 1 Gy+1 μM β-lap): 4 µM
Equivalent dose of IR (PC-3 cells; IR 0 Gy + β-Lap 1 μM): 0.6 Gy
Equivalent dose of β-Lap (PC-3 cells; IR 0 Gy + β-Lap 1 μM): 1 µM
Equivalent dose of IR (PC-3 cells; IR 0 Gy + β-Lap 2 μM): 1.2 Gy
Equivalent dose of β-Lap (PC-3 cells; IR 0 Gy + β-Lap 2 μM): 2 µM
Equivalent dose of IR (PC-3 cells; IR 0 Gy + β-Lap 3 μM): 1.7 Gy
Equivalent dose of β-Lap (PC-3 cells; IR 0 Gy + β-Lap 3 μM): 3 µM
Equivalent dose of IR (PC-3 cells; IR 1 Gy + β-Lap 1 μM): 1.7 Gy
Equivalent dose of β-Lap (PC-3 cells; IR 1 Gy + β-Lap 1 μM): 4.1 µM
Equivalent dose of IR (PC-3 cells; IR 1 Gy + β-Lap 2 μM): 2.1 Gy
Equivalent dose of β-Lap (PC-3 cells; IR 1 Gy + β-Lap 2 μM): 5.6 µM
Equivalent dose of IR (PC-3 cells; IR 1 Gy + β-Lap 3 μM): 2.7 Gy
Equivalent dose of β-Lap (PC-3 cells; IR 1 Gy + β-Lap 3 μM): 6.8 µM
Equivalent dose of IR (PC-3 cells; IR 2 Gy + β-Lap 1 μM): 2.6 Gy
Equivalent dose of β-Lap (PC-3 cells; IR 2 Gy + β-Lap 1 μM): 7.9 µM
Equivalent dose of IR (PC-3 cells; IR 2 Gy + β-Lap 2 μM): 3.1 Gy
Equivalent dose of β-Lap (PC-3 cells; IR 2 Gy + β-Lap 2 μM): 9.6 µM
Equivalent dose of IR (PC-3 cells; IR 2 Gy + β-Lap 3 μM): 3.6 Gy
Equivalent dose of β-Lap (PC-3 cells; IR 2 Gy + β-Lap 3 μM): 11.5 µM
Equivalent dose of IR (PC-3 cells; IR 3 Gy + β-Lap 1 μM): 3.7 Gy
Equivalent dose of β-Lap (PC-3 cells; IR 3 Gy + β-Lap 1 μM): 12.5 µM
Equivalent dose of IR (PC-3 cells; IR 3 Gy + β-Lap 2 μM): 4.1 Gy
Equivalent dose of β-Lap (PC-3 cells; IR 3 Gy + β-Lap 2 μM): 14.5 µM
Equivalent dose of IR (PC-3 cells; IR 3 Gy + β-Lap 3 μM): 4.6 Gy
Equivalent dose of β-Lap (PC-3 cells; IR 3 Gy + β-Lap 3 μM): 16 µM
Response to β-lap [2]: not responsive
LD50 + DIC (HCC44; HCC44, *1/*2, 2 h, + dicoumarol (40 μM)): >10 µM
β-Lap Lethality LD50 (HCC44; HCC44, NQO1 genotype *1/*2, 2 h exposure): 2.8 µM
LD50 + DIC (T47D/BreastCancer; [4]): 4 µM
β-Lap Lethality LD50 (T47D/BreastCancer; [5]): 4 µM
LD50 + DIC (H2009/NSCLC; [4]): 5.4 µM
β-Lap Lethality LD50 (H2009/NSCLC; [5]): 4.3 µM
LD50 + DIC (HCC2935; HCC2935, *1/*3, 2 h, + dicoumarol (40 μM)): >10 µM
β-Lap Lethality LD50 (HCC2935; HCC2935, NQO1 genotype *1/*3, 2 h exposure): 1.0 µM
LD50 + DIC (H1648; H1648, *1/*1, 2 h, + dicoumarol (40 μM)): >20 µM
β-Lap Lethality LD50 (H1648; H1648, NQO1 genotype *1/*1, 2 h exposure): 4.1 µM
NAD(P)H used per mole of β-lap (NQO1 [3]): > 60 mol

— US9469878B2, “Methods of treating cancer comprising targeting NQO1” (The Board of Regents of the University of Texas System, priority 2010, dated 2016)
